“And” between values parts separate entries of the source, which are not always exact repeats. Equal entries are not always repeated.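 1) Cells in 96-well plates. 2) Compound, 48 h, 5 concentrations. 3) Linear interpolation between surrounding doses. 4) Unreached endpoint = highest concentration. The concentration for 50% growth inhibition is given as GI50. Definition used: TGI = concentration required for complete inhibition of growth.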
Assays:
Experiment in all cases: NCI anticancer screen, dose series, 48 h
TK-10 renal = tested on: TK-10 renal
K-562 leukemia = tested on: K-562 leukemia
PC-3 prostate = tested on: PC-3 prostate
RPMI-8226 leukemia = tested on: RPMI-8226 leukemia
HL-60(TB) leukemia = tested on: HL-60(TB) leukemia

Compound	TGI (TK-10 renal)	TGI (K-562 leukemia)	TGI (PC-3 prostate)	TGI (RPMI-8226 leukemia)	TGI (HL-60(TB) leukemia)	GI50 (HL-60(TB) leukemia)	GI50 (K-562 leukemia)	GI50 (PC-3 prostate)	GI50 (RPMI-8226 leukemia)	GI50 (TK-10 renal) [µM]
Nc1nc(N)c2ncn(CC3CCC(CO)C3)c2n1 (centres undefined)	> 100 µM	> 100 µM	> 100 µM	> 100 µM						
C=C(C)C(=O)CC[C@@H](C)[C@H]1[C@@H](OC2OC(CO)C(O)C(O)C2O)C[C@@]2(C)[C@@H]3C[C@H](O)C4C(C)(C)[C@@H](OC5OC(CO)C(O)C(O)C5O)CC[C@@]45C[C@@]35CC[C@]12C (some centres undefined)	> 100 µM	> 100 µM	> 100 µM	> 100 µM	> 100 µM					
CC(=O)NC1C(OCc2ccccc2)OC(CO)C(O)C1OCC(=O)NC(C)C(=O)NC(CCC(=O)NCCCCNc1ccc([N+](=O)[O-])c2[nH]c3ccccc3c(=O)c12)C(N)=O (centres undefined)	> 100 µM	> 100 µM	> 100 µM		> 100 µM					
CC[C@@]1(O)C(=O)OCc2c1cc1n(c2=O)Cc2c-1nc1ccccc1c2/C=N\NC(=O)C(N)CC(C)C (some centres undefined)	> 100 µM	> 100 µM	> 100 µM	3.71 µM	> 100 µM					
O=C1c2ccccc2C2CNC1(O)c1ccccc12 (centres undefined)	> 100 µM	> 100 µM	> 100 µM	> 100 µM	> 100 µM					
O=C1Oc2ccccc2C(=O)/C1=C/N1C(=O)N/C(=C\c2ccccc2O)C1=O	> 100 µM	> 100 µM	> 100 µM	> 100 µM	> 100 µM					
O=C(Cn1c(=O)oc2ccc(C(=O)c3ccc(F)cc3)cc21)c1ccc([N+](=O)[O-])cc1	> 100 µM	> 100 µM	85.9 µM	> 100 µM	60 µM					
Cc1ccc(S(=O)(=O)c2scc(-c3ccccc3)c2C)cc1	> 100 µM	> 100 µM	> 100 µM	> 100 µM	> 100 µM					
C=CCNC(=S)Nc1sc2c(c1C(=O)OCC)CC(C)CC2 (centres undefined)	63.7 µM	> 100 µM	50 µM	68.6 µM	14.7 µM					
COc1cc(/C=C2/SC(c3ccccc3)N(c3ccc(NC(C)=O)cc3)C2=O)cc(OC)c1OC (centres undefined)	> 100 µM	> 100 µM		> 100 µM	> 100 µM					
COc1cc(/C=C/C(=O)OCC23CC[C@@]4(C(=O)O)CCC(C)[C@H](C)C4C2=CCC2[C@@]4(C)CC[C@H](O)C(C)(C)C4CC[C@]23C)ccc1O (some centres undefined)	8.9 µM	> 100 µM	41.5 µM		51.1 µM					
O=S(=O)(c1ccc(Br)cc1)n1c2ccc(Br)cc2c2nc3ccccc3nc21	> 100 µM	> 100 µM	> 100 µM	> 100 µM						
CN(C)CCNc1ccc(C(=O)NCCCN(C)CCCNC(=O)c2ccc(NCCN(C)C)c3c(=O)c4ccccc4[nH]c23)c2[nH]c3ccccc3c(=O)c12	6.94 µM	5.27 µM	3.44 µM	0.229 µM	2.74 µM					
O=C1c2c(F)c(F)c(F)c(F)c2SC2=NCCN12	22.4 µM	> 22.5 µM	27.2 µM	24.8 µM						
O=C1C(N2CCCC2)=CC(=O)c2c(O)c(N3CCCC3)c(Cl)c(O)c21	> 10 µM	> 10 µM	> 10 µM	> 10 µM	> 10 µM					
COc1ccc(-c2nc(N)c(C#N)c3c2CCS(=O)(=O)c2ccc(C)cc2-3)cc1OC	> 100 µM	29.4 µM	> 100 µM							
O=C(COc1ccc(OCC(=O)N2C(=O)CC(=O)N(c3ccccc3)C2=S)cc1)N1C(=O)CC(=O)N(c2ccccc2)C1=S	> 100 µM	> 100 µM	> 100 µM	> 100 µM						

Compound	TGI (TK-10 renal)	TGI (K-562 leukemia)	TGI (PC-3 prostate)	TGI (RPMI-8226 leukemia)	TGI (HL-60(TB) leukemia)	GI50 (HL-60(TB) leukemia)	GI50 (K-562 leukemia)	GI50 (PC-3 prostate)	GI50 (RPMI-8226 leukemia)	GI50 (TK-10 renal) [µM]
c1ccc(CNC2CC(NCc3ccccn3)CC(NCc3ccccn3)C2)nc1 (centres undefined)	17.8 µM and 10.8 µM	34.6 µM and 25 µM and 28.3 µM	5.68 µM and 8.75 µM and 3.98 µM	9.64 µM and 25 µM and 13.5 µM	10.5 µM and 10.2 µM	2.78 µM and 1.23 µM	3.45 µM and 12.4 µM and 3.71 µM	2.24 µM and 4.59 µM and 2.02 µM	2.96 µM and 6.93 µM and 3.51 µM	
COc1cccc2c1OC1c3ccccc3OCC1C2 (centres undefined)	> 100 µM	> 100 µM	> 100 µM	> 100 µM						
Cc1[nH]c2ncn(/N=C/c3ccccc3O)c(=N)c2c1Cc1ccccc1	> 100 µM	> 100 µM	46.6 µM	> 100 µM	66.8 µM					
CCCCNC1CCC2(SCCS2)c2[nH]c3ccccc3c21 (centres undefined)	45.1 µM	55.1 µM	> 67.3 µM	> 43.1 µM	8.05 µM					
CN1C/C(=C\c2cccs2)C2=NC(=S)NC(c3cccs3)C2C1 (centres undefined)	> 100 µM	> 100 µM	> 100 µM	> 100 µM	19.1 µM					
CC[n+]1cnc(N)c2c(-c3ccc(Cl)cc3)cn(-c3ccc(C)cc3)c21	31.6 µM	20.7 µM	25 µM		44.3 µM					
CCOC(=O)c1cnc(-n2[nH]c(C)c(CCO)c2=O)[nH]c1=O	> 100 µM	> 100 µM	> 100 µM	> 100 µM	> 100 µM					
CC1(C)O[C@H]2Cn3c(c(C#N)c4ccccc43)[C@H]2O1	> 100 µM			> 100 µM	> 100 µM					
C/C=C/[C@@]1(OC(=O)c2ccccc2)C[C@@H]2CCCC[C@@H]21	36 µM	56.7 µM	37 µM	38.5 µM	30.9 µM					
O=C1C2CCCCC2C(=O)N1n1c(Cc2ccc(Cl)cc2)n[nH]c1=O (centres undefined)	> 100 µM	> 100 µM	> 100 µM	> 100 µM						
CCC(C)[C@H](NC(=O)[C@H](Cc1ccccc1)NC(=O)N(CC)c1ccccc1)C(=O)N[C@@H](CC(C)C)C(=O)OC (some centres undefined)	> 100 µM		> 100 µM	38 µM						
O=C(CSCC(=O)N/N=C/c1cc(I)cc(I)c1O)N/N=C/c1cc(I)cc(I)c1O	31.6 µM	37.7 µM	> 100 µM	61.5 µM	43.5 µM					
COc1ccc2oc(=N)c(C(=O)Nc3cccc4ccccc34)cc2c1	51.1 µM	> 100 µM	31.1 µM	57.9 µM	> 100 µM					
CCOC(=O)CCCn1nnc(C(=O)OCC)c1C(=O)OCC	> 100 µM		> 100 µM							
CCCC(=O)O	> 18700 µM		> 18700 µM		> 18700 µM	1120 µM			473 µM	2120
COCOc1ccc(C(=O)C(C)c2ccc(OCOC)cc2OCOC)c(O)c1 (centres undefined)	> 100 µM		> 100 µM	> 100 µM	> 100 µM					
O=C(c1ccccc1)c1ccc2c(c1)nc1n2C(c2c(Cl)cccc2Cl)SC1 (centres undefined)	> 100 µM		> 100 µM	> 100 µM	> 100 µM					
